Data as given in ChEMBL document CHEMBL1150883, “Antitumor-promoting naphthoquinones from Catalpa ovata” (J Nat Prod, 1998).

How the values were obtained:
Format in all cases: cell-based
[1] = Cytotoxicity against human Raji cells assessed as cell viability at 1000 molar ratio after 48 hrs; conditions: read-out: Activity
Raji [2] = experiment: Inhibition of 12-O-tetradecanoylphorbol-13-acetate induced EBV-early antigen activation in human Raji cells at 10 molar ratio per 32 pmol/ml TPA by immunofluorescence technique relative to control; set-up: Activity: scale not given: the % may be the effect or the level left; conditions: human gammaherpesvirus 4
Raji [3] = experiment: Inhibition of 12-O-tetradecanoylphorbol-13-acetate induced EBV-early antigen activation in human Raji cells at 1000 molar ratio per 32 pmol/ml TPA by immunofluorescence technique relative to control; set-up: scale not given: the % may be the effect or the level left; conditions: human gammaherpesvirus 4
[4] = Cytotoxicity against human Raji cells assessed as cell viability at 500 molar ratio after 48 hrs; conditions: read-out: Activity

Row | Structure (SMILES) | viability at 48 h, 1000 molar ratio [1] | EBV-EA activation remaining (% of TPA control) (Raji [2]) | Activity (Raji [3]) | Activity (Raji [2]) | viability at 48 h, 500 molar ratio [4]
1 | CC1(C)C[C@H](O)C2=C(O1)C(=O)c1ccccc1C2=O | 60% | 86.7% | 11.2% |  | 
2 | CC1=C(/C=C/C(C)=C/C=C/C(C)=C/C=C/C=C(C)/C=C/C=C(C)/C=C/C2=C(C)CCCC2(C)C)C(C)(C)CCC1 [BETA CAROTENE] | 70% | 100% | 8.6% |  | 
3 | C=C(C)[C@H]1CC2=C(O1)C(=O)c1c(OC)cccc1C2=O | 60% |  | 0% | 100% | 
4 | COc1cccc2c1C(=O)C1=C(CCC(C)(C)O1)C2=O | 70% | 100% | 83.8% |  | 
5 | CC1(C)C[C@H](O)[C@H]2C(=O)c3ccccc3[C@@H](O)[C@@H]2O1 | 70% | 93.8% | 0% |  | 
6 | COc1cccc2c1C(=O)C1=C(C(=O)CC(C)(C)O1)C2=O | 70% | 100% | 32.7% |  | 
7 | CC1(C)CC=C(C2OC(=O)c3ccccc32)C(=O)O1 (stereo not drawn) [CATALPALACTONE] | 70% | 89.5% | 0% |  | 
8 | C=C(C)[C@@H]1OC2=C(C(=O)c3ccccc3C2=O)[C@@H]1O | 30% | 88.5% | 0% |  | 60%
9 | CC1(C)C[C@H](O)C2=C(O1)C(=O)c1c(O)cccc1C2=O | 60% | 100% | 36.1% |  | 
